Results published in US6673364B1, “Liposome having an exchangeable component” (The University of British Columbia, priority 1995, dated 2004).

Columns and labels:
[1] = Lipid mixing (FRET) assay, NaCl-induced fusion of DOPE:DODAC liposomes; conditions: DOPE:DODAC:PEG-lipid 83:15:2, 300 mM NaCl, POPC sink
Method: (§1) Lipid mixtures were prepared as described for NMR measurements. The resultant multilamellar vesicles (MLV) were frozen in liquid nitrogen and then thawed at 30° C. five times. Large unilamellar vesicles (LUV) were produced by extrusion of the frozen and thawed MLV ten times through 2 stacked polycarbonate filters of […] pore size at 30° C. and pressures of 200-500 psi (Hope, et al., Biochim. Biophys. Acta 812:55-65 (1985)).
Lipid mixing was measured by a modification of the fluorescence resonance energy transfer (FRET) assay of Struck, et al. (Biochemistry 20:4093-4099 (1981)). […] Fluorescence emission intensity was measured at 517 nm with excitation at 465 nm both before and after the addition of Triton X-100 (final concentration of 0. 5% or 1% when POPC sink was used). Data is presented as either uncorrected fluorescence intensity for short term assays (<1 hour) or as percentage fusion. […] Maximum fusion was determined using mock fused vesicles containing 0.125 mol % of each fluorescent probe. The percentage fusion was calculated as: [formula]
where F(t)=fluorescence intensity at time t; Fo=fluorescence intensity at zero time; FT=fluorescence intensity in the presence of Triton X-100. […]

[2] = Lipid mixing (FRET) assay, Ca2+-induced fusion of PE:PS LUVs
Method: as §1
Lipid mixing was measured by a modification of the fluorescence resonance energy transfer (FRET) assay of Struck, et al. (Biochemistry 20:4093-4099 (1981)). LUVs were prepared containing the fluorescent lipids, N-(7-nitro-2-1,3-benzoxadiazol-4-yl)-dioleoylphosphatidylethanolamine (NBD-PE) and N-(lissamine rhodamine B sulfonyl)-dipalmitoylphosphatidylethanolamine (Rh-PE) at 0.5 mol %. LUVs (50-60 μM) and a three-fold excess of unlabelled target vesicles were mixed in the fluorimeter at 37° C. for short term assays (≦1 hour), or in sealed cuvettes in a dark water bath at 37° C. for longer assays. For measurements of fusion after PEG-lipid transfer, an excess of liposomes prepared from 1-palmitoyl-2-oleoyl-phosphatidylcholine (POPC) was added as a sink for the PEG-lipid. Fluorescence emission intensity was measured at 517 nm with excitation at 465 nm both before and after the addition of Triton X-100 (final concentration of 0. 5% or 1% when POPC sink was used). Data is presented as either uncorrected fluorescence intensity for short term assays (<1 hour) or as percentage fusion. Light scattering controls were performed by replacing LUVs labelled with 0.5 mol % probes with unlabelled vesicles. Maximum fusion was determined using mock fused vesicles containing 0.125 mol % of each fluorescent probe. The percentage fusion was calculated as: [formula]
where F(t)=fluorescence intensity at time t; Fo=fluorescence intensity at zero time; FT=fluorescence intensity in the presence of Triton X-100. M and L represent the same measurements for the mock fused control and the light scattering control respectively.

[3] = 31P-NMR phase preference of equimolar DOPE:cholesterol mixtures with bilayer stabilizing component (BSC); type: physicochemical
Method: Lipid components were mixed in 1-2 ml of benzene:methanol (95:5, v/v) and then lyophilized for a minimum of 5 hours at a pressure of <60 millitorr using a Virtis lyophilizer equipped with a liquid N2 trap. Multilamellar vesicles (MLVs) were prepared by hydrating the dry lipid mixtures in 150 mM NaCl, buffered with 10 mM Hepes-NaOH, pH 7.4 (Hepes-buffered saline, HBS). Mixtures were vortexed to assist hydration. To produce large unilamellar vesicles (LUVs), MLVs were first frozen in liquid nitrogen and then thawed at 30° C. five times. LUVs were produced by extrusion of the frozen and thawed MLVs ten times through 2 stacked polycarbonate filters of 100 nm pore size at 30° C. and pressures of 200-500 psi (Hope, et al., Biochim. Biophys. Acta, 812:55-65 (1985)).
^31P-NMR spectra were obtained using a temperature controlled Bruker MSL200 spectrometer operating at 81 MHz. Free induction decays were accumulated for 2000 transients using a 4 μs, 90° pulse, 1 sec. interpulse delay, 20 KHz sweep width and Waltz decoupling. A 50 Hz line broadening was applied to the data prior to Fourier transformation. Samples were allowed to equilibrate at the indicated temperature for 30 minutes prior to data accumulation. Lipid concentrations of 30-70 mM were used.

[4] = PE:PS LUVs, 2 mol % PE-PEG2000, POPC sink

In the case of “PEG2000 conjugated to dimyristoylphosphatidylethanolamine [DMPE-PEG2000]”, the “extent of fusion at 21 hr” value [1] is reported as < 20 % of maximum, the “time delay (lag phase) prior to fusion” value ([2]; 2, 3, 5 or 10 mol % PEG-lipid, 36fold excess POPC liposomes) is reported as “increase in the time delay prior to fusion with increasing PEG-lipid concentration” and the “concentration sufficient to eliminate (completely inhibit) Ca2+-induced fusion” value ([2]; PE:PS (1:1) LUVs, 5 mM Ca2+, 37° C.) is reported as 2 mol %. For the same substance, the “time at which fusion was essentially complete” value [2, 4] was 40 min.

For “PEG2000 conjugated to dipalmitoylphosphatidylethanolamine [DPPE-PEG2000]”, the “time at which fusion was essentially complete” value [2, 4] was 1440 min and the “implied decrease in rate of transfer (acyl chains 14 to 16 carbons)” value ([2]; relative to DMPE-PEG2000) was 30-40 fold.

For “1-O-methyl-(poly(ethoxy)-O-succinyl-O-(egg)ceramide [egg ceramide-PEG2000]”, the “phase preference (31P-NMR)” value ([3]; DOPE:cholesterol:BSC 1:1:0.1, 0 to 60° C.) was “both bilayer and HII phase lipid are in evidence at most temperatures”, the “phase preference (31P-NMR)” value ([3]; equimolar DOPE:cholesterol, BSC 20 mol % of phospholipid (1:1:0.25)) was “exclusively bilayer up to 60 °C” and the “time for 50% maximal fusion” value ([1]; 37° C.) was “over 20 hr”.

For “PEG2000 conjugated to distearoylphosphatidylethanolamine [DSPE-PEG2000]”, the “level of fusion after 24 hours” value [2, 4] was 20 % of maximum.
